Measured values taken from patent US20210228549A1 (Biohaven Therapeutics Ltd., priority 2015, published 2021).
Like-named read-outs stand apart in the source and are kept apart here. One block for each compound: values may come before it.

Experiments:
[1] = PK in fasted male Sprague Dawley rats, IV administration of prodrug; assay type: in vivo
Method: (§1) Blood samples were collected at pre-determined time points including a 0 h time point and usually between 7 and 8 additional time points not exceeding a 24 h period.
(§2) Plasma samples were extracted and analyzed using the methods described in Plasma Sample Extraction and Analysis. All data are expressed as ng/mL of the free base. Samples that were below the limit of quantification (0.5 ng/mL) were not used in the calculation of averages.
Pharmacokinetic parameters were calculated from the time course of the plasma concentrations. Pharmacokinetic parameters were determined with Phoenix Winnonlin (v6.3) software using a non-compartmental model. The maximum plasma concentration (Cmax) and time to the maximum plasma concentration (Tmax) of the compound of the disclosure were observed from the data. The area under the concentration-time curve (AUC) of the compound of the disclosure was calculated using the trapezoidal formula with calculation to the last quantifiable data point, and to infinity if applicable. Plasma half-life (t1/2) was calculated from 0.693/slope of the terminal elimination phase. Mean residence time, MRT, was calculated by dividing the area under the moment curve (AUMC) by the AUC. Any samples below the limit of quantitation (0.5 ng/mL) were treated as zero for pharmacokinetic data analysis. […]

[2] = PK in fasted male Sprague Dawley rats, PO administration of prodrug; assay type: in vivo; conditions: for Prodrug AUGlast, Mean: PO 5 mg/kg
Method: as §1, §2
Pharmacokinetic parameters were calculated from the time course of the plasma concentrations. Pharmacokinetic parameters were determined with Phoenix Winnonlin (v6.3) software using a non-compartmental model. The maximum plasma concentration (Cmax) and time to the maximum plasma concentration (Tmax) of the compound of the disclosure were observed from the data. The area under the concentration-time curve (AUC) of the compound of the disclosure was calculated using the trapezoidal formula with calculation to the last quantifiable data point, and to infinity if applicable. Plasma half-life (t1/2) was calculated from 0.693/slope of the terminal elimination phase. Mean residence time, MRT, was calculated by dividing the area under the moment curve (AUMC) by the AUC. Any samples below the limit of quantitation (0.5 ng/mL) were treated as zero for pharmacokinetic data analysis.
Plasma Sample Extraction and Analysis: Analytical stock solutions (1.00 mg/mL of the free compound of the disclosure) were prepared in DMSO. Standards were prepared in diluted matrix containing 1 part 10% formic acid and 9 parts Sprague-Dawley rat plasma containing sodium heparin as the anticoagulant (pre-diluted with 1 part of 0.5M citric acid and 9 parts whole blood). Working solutions were prepared in 50:50 acetonitrile:water. Working solutions were then added to plasma to make calibration standards to final concentrations of 1000, 500, 100, 50, 10, 5, 1, and 0.5 ng/mL. Standards contained both the test article and riluzole. Standards were treated identically to the study samples.
Sample Extraction: Plasma samples were extracted via acetonitrile precipitation on a Tomtec Quadra 96-Model 320 liquid handling system in a 96-well plate format.

Melanoma C8161 cells = experiment: Inhibition of human melanoma cell xenograft growth; assay type: in vivo; conditions: C8161 xenograft in nude mice, P<0.01
Method: Mice were treated every day for 21 days, and tumor sizes were measured twice weekly with a Vernier caliper.

[3] = tested on: patients diagnosed with Alzheimer's disease of mild-to-moderate severity; conditions: for CDR01-Sum of Boxes, Model Estimates, Difference LSMean (SE) / ADAS-Cog Total Score, Model Estimates, Difference LSMean (SE) / Hippocampal Volume Change, Model Estimates, Difference LSMean (SE): placebo vs troriluzole; for Hippocampal Volume Change, Model Estimates, LSMean (SE) / Hippocampal Volume Change, Model Estimates, Difference LSMean (SE) / Hippocampal Volume Change, Analysis Value, Mean (SD) / Hippocampal Volume Change, Analysis Value, Median: volumetric MRI;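 on all read-outs here: multicenter parallel-group study, AD severity graded by Mini-Mental State Examination score (mild 20–24, moderate 14–19)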
Method: This is a phase 2 multi-center, randomized, double blind, placebo-controlled, parallel group study in patients with mild to moderate Alzheimer's disease.
Participants will be randomized to one of two groups: 280 mg of BHV-4157 or placebo. […] Treatment duration is 48 weeks (12 months). There is a screening period of up to 42 days and a 4-week post-treatment observation period.
The CDR-SOB (Hughes, Berg, Danziger, Coben, & Martin, 1982) is a validated composite rating of cognition and everyday functioning used in longitudinal AD research which incorporates both informant input and direct assessment of performance. It assesses through semi structured interview 3 cognitive domains including memory, orientation, and judgement/problem solving and 3 everyday functional domains including community affairs, home and hobbies and personal care. There are 5 levels of impairment from none CDR=0 to severe CDR=3. The individual domain scores are added to create a sum of the box scores.

[4] = tested on: patients with Stage III and IV melanoma; conditions: after only 14 days of treatment, cited from earlier work
[5] = fasted male Sprague Dawley rats, prodrug in plasma
[6] = Mild AD Patients Only, Week 48, troriluzole 280 mg once daily, N 62
[7] = Mild AD Patients Only, Week 48, troriluzole 280 mg once daily, N 65
[8] = mild-to-moderate AD, Week 48, troriluzole 280 mg once daily, N 118
[9] = mild-to-moderate AD, Week 48, troriluzole 280 mg once daily, N 119
[10] = Mild AD Patients Only, Week 48, troriluzole 280 mg once daily, N 48
[11] = mild-to-moderate AD, Week 48, troriluzole 280 mg once daily, N 87

Half life on conversion to Riluzole [1]: moderate to long half life | bioavailability ([2]; rat, plasma, fasted male Sprague Dawley rats, PO 14 mg/kg, prodrug, read-out: Example 125 % F (bioavailability)): 26% | AUC(0-inf) ([2]; rat, fasted male Sprague Dawley rats, PO 14 mg/kg, prodrug in plasma, read-out: Example 125 AUCinf, Mean): 2290 ng·h/mL | AUC(0-t) ([2]; rat, fasted male Sprague Dawley rats, PO 14 mg/kg, prodrug in plasma, read-out: Example 125 AUClast, Mean): 2260 ng·h/mL | Cmax ([2]; rat, fasted male Sprague Dawley rats, PO 14 mg/kg, prodrug in plasma, read-out: Example 125 Cmax, Mean): 213 ng/mL | half-life ([2]; rat, fasted male Sprague Dawley rats, PO 14 mg/kg, prodrug in plasma, read-out: Example 125 t1/2, Mean (converted)): 3.8 h | Tmax ([2]; rat, fasted male Sprague Dawley rats, PO 14 mg/kg, prodrug in plasma, read-out: Example 125 tmax, Mean): 1.8 h | Half life on conversion to Riluzole ([2]; rats, oral administration): long half life | Oral bioavailability on conversion to Riluzole ([2]; rats, oral administration): high oral bioavailability
Structure (SMILES): CN(CC(=O)Nc1nc2ccc(OC(F)(F)F)cc2s1)C(=O)CNC(C)(C)C [Example 125, 2-(tert-butylamino)-N-methyl-N-(2-oxo-2-((6-(trifluoromethoxy)benzo[d]thiazol-2-yl)amino)ethyl)acetamide]
Tumor volume vs untreated or vehicle-treated controls (Melanoma C8161 cells; 4.9 mg/kg (threefold lower in molar terms) p.o. gavage every day for 21 days): significant reduction in tumor volume | Tumor volume vs untreated or vehicle-treated controls (Melanoma C8161 cells; 14.6 mg/kg (equimolar to riluzole) p.o. gavage every day for 21 days): significant reduction in tumor volume

Prodrug AUGlast, Mean [2, 5]: 0.90 ng·h/mL
Structure (SMILES): CN(CC(=O)Nc1nc2ccc(OC(F)(F)F)cc2s1)C(=O)CNC(=O)CN [Example 204, 2-Amino-N-{[methyl({[6-(trifluoromethoxy)-1,3-benzothiazol-2-yl]carbamoyl}methyl)carbamoyl]methyl}acetamide]
Safety and tolerability ([3]; 280 mg once daily, safety profile consistent with previous studies): relatively well tolerated | CDR01-Sum of Boxes, Model Estimates, LSMean (SE) ([3]; Mild AD Patients Only, Week 48, change from baseline, 95% CI (1.1, 2.2)): 1.7 (0.29) | ADAS-Cog Total Score, Model Estimates, LSMean (SE) ([3]; Mild AD Patients Only, Week 48, change from baseline, 95% CI (2.7, 5.7)): 4.2 (0.76) | CDR01-Sum of Boxes, Model Estimates, Difference LSMean (SE) ([3]; Mild AD Patients Only, Week 48, 95% CI (−1.1, 0.5), P-Value 0.4347): −0.3 (0.40) | ADAS-Cog Total Score, Model Estimates, Difference LSMean (SE) ([3]; Mild AD Patients Only, Week 48, 95% CI (−1.4, 2.7)): 0.7 (1.02) | CDR01-Sum of Boxes, Analysis Value, Mean (SD) [3, 6]: 7.1 (2.79) | CDR01-Sum of Boxes, Analysis Value, Median [3, 6]: 6.5 | CDR01-Sum of Boxes, Change from Baseline, Mean (SD) [3, 6]: 1.4 (2.06) | CDR01-Sum of Boxes, Change from Baseline, Median [3, 6]: 1.0 | ADAS-Cog Total Score, Analysis Value, Mean (SD) [3, 7]: 26.2 (8.22) | ADAS-Cog Total Score, Analysis Value, Median [3, 7]: 26.0 | ADAS-Cog Total Score, Change from Baseline, Mean (SD) [3, 7]: 3.9 (5.90) | ADAS-Cog Total Score, Change from Baseline, Median [3, 7]: 4.0 | NPI across subgroups ([3]; Week 48, only mild AD, only moderate AD, only ApoE4 positive, only ApoE4 negative patients): numerical differences of a potential benefit | ADAS-Cog11 score, difference placebo vs troriluzole ([3]; mild AD, after 48 weeks, 95% CI −1.4, 2.7, p-value=0.5233): 0.7 | LS mean percent deformation change from baseline hippocampal volume ([3]; mild AD, after 48 weeks, n=48, 95% CI −1.6, −0.6, placebo −1.6%): −1.1% | LS mean change from baseline on the NPI score ([3]; mild AD, after 48 weeks, n=62, placebo 4.2 points): 2.1 points | LS mean change from baseline on the ADAS-Cog11 score ([3]; mild AD, after 48 weeks, n=65, 95% CI 2.7, 5.7, placebo 4.9 points): 4.2 points | CDR01-Sum of Boxes, Model Estimates, LSMean (SE) ([3]; mild-to-moderate AD, Week 48, change from baseline, 95% CI (1.7, 2.5)): 2.1 (0.21) | CDR01-Sum of Boxes, Model Estimates, Difference LSMean (SE) ([3]; mild-to-moderate AD, Week 48, 95% CI (−0.8, 0.3), P-Value 0.4474): −0.2 (0.28) | ADAS-Cog Total Score, Model Estimates, Difference LSMean (SE) ([3]; mild-to-moderate AD, Week 48, 95% CI (−1.8, 1.8), P-Value 0.9809): 0.0 (0.93) | CDR01-Sum of Boxes, Analysis Value, Mean (SD) [3, 8]: 8.3 (3.24) | CDR01-Sum of Boxes, Analysis Value, Median [3, 8]: 8.0 | CDR01-Sum of Boxes, Change from Baseline, Mean (SD) [3, 8]: 1.9 (2.37) | CDR01-Sum of Boxes, Change from Baseline, Median [3, 8]: 2.0 | ADAS-Cog Total Score, Analysis Value, Mean (SD) [3, 9]: 31.5 (10.82) | ADAS-Cog Total Score, Analysis Value, Median [3, 9]: 30.0 | ADAS-Cog Total Score, Charge from Baseline, Mean (SD) [3, 9]: 0.8 (7.40) | ADAS-Cog Total Score, Charge from Baseline, Median [3, 9]: 0.0 | NPI score, difference troriluzole vs placebo ([3]; mild-to-moderate AD, after 48 weeks, 95% CI −4.08, 1.10, p-value=0.258): −1.5 | LS mean change from baseline on the NPI score ([3]; mild-to-moderate AD, after 48 weeks, n=120, placebo 3.8 points): 2.3 points | Hippocampal Volume Change, Model Estimates, LSMean (SE) ([3]; Mild AD Patients Only, Week 48, 95% CI (−1.6, −0.6)): −1.1 (0.27) | Hippocampal Volume Change, Model Estimates, Difference LSMean (SE) ([3]; Mild AD Patients Only, Week 48, 95% CI (−1.2, 0.3), P-Value 0.2240): −0.5 (0.38) | Hippocampal Volume Change, Analysis Value, Mean (SD) [3, 10]: −1.1 (1.61) | Hippocampal Volume Change, Analysis Value, Median [3, 10]: −0.9 | Hippocampal Volume Change, Model Estimates, LSMean (SE) ([3]; mild-to-moderate AD, Week 48, 95% CI (−1.4, −0.7)): −1.1 (0.18) | Hippocampal Volume Change, Model Estimates, Difference LSMean (SE) ([3]; mild-to-moderate AD, Week 48, 95% CI (−0.6, 0.5), P-Value 0.8670): 0.0 (0.26) | Hippocampal Volume Change, Analysis Value, Mean (SD) [3, 11]: −1.1 (1.50) | Hippocampal Volume Change, Analysis Value, Median [3, 11]: −0.9

Prodrug AUGlast, Mean [2, 5]: 16.6 ng·h/mL
Structure (SMILES): CN(CC(=O)Nc1nc2ccc(OC(F)(F)F)cc2s1)C(=O)CNC1CCNCC1 [Example 216, N-methyl-2-[(piperidin-4-yl)amino]-N-({[6-(trifluoromethoxy)-1,3-benzothiazol-2-yl]carbamoyl}methyl)acetamide]

Structure (SMILES): Nc1nc2ccc(OC(F)(F)F)cc2s1 [riluzole]
Patients with clinical or radiologic evidence of tumor response ([4]; listed as Riluzole): four of 12 | Patients with clinical or radiologic evidence of tumor response [4]: four of twelve
